Like-named read-outs stand apart in the source and are kept apart here.
Key:
[1] = tested on: NCI-H23; test: cells; type: cell-based; conditions: Homo sapiens, NCI-H23, 72 h
[2] = tested on: NCI-H1975; test: cells; type: cell-based; conditions: Homo sapiens, NCI-H1975, 72 h
[3] = tested on: NCI-H2228; test: cells; type: cell-based; conditions: Homo sapiens, NCI-H2228, 72 h
[4] = tested on: NCI-H1573; test: cells; type: cell-based; conditions: Homo sapiens, NCI-H1573, 72 h
[5] = tested on: NCI-H2228; test: cells; type: cell-based; conditions: Homo sapiens, NCI-H2228, 72 h; remark: listed apart in the source
[6] = humans, 600 mg once daily; data not shown; cited from earlier work
[7] = tested on: HBCx-12; type: in vivo; conditions: HBCx-12, Breast, TNBC, Rb present; 125 mg/kg bid × 21
[8] = tested on: JeKo-1 xenograft; type: in vivo; conditions: for tumor response: qd, po
[9] = tested on: HBRX1004; type: in vivo; conditions: HBRX1004, Breast, TNBC, Rb present; 250 mg/kg qd
[10] = tested on: NCI-H2009; design: method as in Brain C et al, manuscript in preparation; conditions: RB1-deleted lung adenocarcinoma line; up to 10 μM; ref Brain C et al, manuscript in preparation; cited from earlier work
[11] = tested on: A2058; test: cells; type: cell-based; conditions: Homo sapiens, A2058, 72 h
[12] = tested on: JeKo-1 mantle cell lymphoma cells; design: method as in Brain C et al, manuscript in preparation; conditions: RB1-proficient; ref Brain C et al, manuscript in preparation; cited from earlier work
[13] = tested on: HCOX1290; type: in vivo; conditions: HCOX1290, Colorectal, Rb present; 250 mg/kg qd
[14] = tested on: MEL-JUSO; type: in vivo; conditions: Melanoma
[15] = tested on: SK-N-SH; test: cells; type: cell-based; conditions: Homo sapiens, 72 h
[16] = tested on: MDA-MB-415; test: cells; type: cell-based; conditions: Homo sapiens, MDA-MB-415, 72 h

Which results are given for `CN(C)C(=O)c1cc2cnc(Nc3ccc(N4CCNCC4)cn3)nc2n1C1CCCC1` [Ribociclib, 7-cyclopentyl-2-(5-piperazin-1-yl-pyridin-2-ylamino)-7H-pyrrolo[2,3-d]pyrimidine-6-carboxylic acid dimethylamide]?
IC50 [1]: > 10 µM; IC50 [2]: 3.53 µM; IC50 [3]: > 10 µM; IC50 [4]: > 10 µM; IC50 [5]: > 10 µM; area under the concentration-time curve [6]: ~22,000 ng/mL × h; maximum serum concentration [6]: ~1700 ng/mL; T/C [7]: 33; tumor response ([8]; 75 mg/kg): complete tumor regression; tumor response ([8]; 150 mg/kg): complete tumor regression; tumor growth inhibition ([8]; rat, in vivo): 56%; T/C [9]: 10; effect on cell-cycle progression [10]: no effect; IC50 [11]: > 10 µM; effect on pRb and cell cycle [12]: dephosphorylation of phosphorylated Rb (pRb) and concomitant G1 cell-cycle arrest; T/C [13]: 22; T/C ([14]; 75 mg/kg qd): 47; T/C ([14]; 150 mg/kg qd): 32; T/C ([14]; 250 mg/kg qd): 2; IC50 [15]: 0.27 µM; IC50 [16]: 0.98 µM
